According to patent US20190255114A1, “STORAGE OF PLATELETS” (University of Kentucky Research Foundation, priority 2018, published 2019):

Columns and labels:
[1] = system: washed platelets from C57BL/6 mice; assay: Cold storage of washed mouse platelets: aggregation and single platelet counts; assay type: cell-based; details: presence of EGTA, 4° C. for various time
Protocol: To investigate the mechanism of the rapid clearance after cold storage, washed platelets from C57BL/6 mice were suspended in Ca^++ free Tyrode's solution (12 mM NaHCO3, 138 mM NaCl, 5.5 mM glucose, 2.9 mM KCl, 2 mM MgCl2, 0.42 mM NaH2PO4, 10 mM HEPES, pH 7.4). and stored at RT or 4° C. Washed platelets from C57BL/6 mice were stored at RT or 4° C. for 24 hours. After storage, platelets were incubated with Oregon Green-labeled fibrinogen at 22° C. for 30 min. Fibrinogen binding to platelets was analyzed by flow cytometry. […] To confirm this observation, single platelet count was measured using a HEMAVET HV950FS multispecies hematology analyzer. Indeed, platelet counts were reduced dramatically after platelets were stored at 4° C. for over 24 hours (FIG. 1B).
To determine the molecular mechanism by which cold induces platelet activation, washed platelets prepared from C57BL/6 mice were stored at RT, cold, or cold with O-sialoglycoprotein endopeptidase (OSGE). […] GPIbα-dependent platelet activation is one of the major mechanisms leading to rapid clearance of cold-stored platelets.
If cold-induced aggregation is due to integrin activation, integrin inhibitors should be able to inhibit this process. Washed platelets from C57BL/6 mice, suspended in Ca^++ free Tyrode's solution, were added with 1 mM RGDS and stored at 4° C. for 24 hours. […]

[2] = system: washed GFP platelets; assay: Clearance of transfused cold-stored washed GFP platelets (flow cytometry); assay type: in vivo, C57BL/6J mice; details: 50 uM EGTA, stored at 4° C. for 24 hours, retro-orbital injection
Protocol: To monitor the life span of transfused platelets in circulation, a method that can easily differentiate the transfused platelets from recipient platelets was developed. Platelets from C57BL/6-Tg(CAGEGFP)1 Osb/J mice (GFP mice) (From Jackson Laboratories) are GFP positive that are distinct from the recipient platelets by flow cytometry assay (FIG. 6A). C57BL/6J mice were injected retro-orbitally with washed GFP platelets (2.5×10^8 per mouse). 60 μl blood was collected from mice and PRP was analyzed by flow cytometry. Quantitative results were expressed as percentage of survived transfused platelets (GFP positive cells at 5 min after transfusion was set to 100%; mean±SD; n=5). […]
C57BL/6J mice were injected retro-orbitally with fresh washed GFP platelets or GFP platelets stored at 4° C. for 24 hours (2.5×10^8 per mouse) with or without 1 mM RGDS. Blood was collected from mice and platelets were analyzed by flow cytometry. Quantitative results were expressed as percentage of survived transfused platelets (GFP positive cells of transfused fresh platelets at 5 min after transfusion was set to 100%, n=4). […]
Blood was collected from mice and platelets were analyzed by flow cytometry. Quantitative results were expressed as percentage of survived transfused platelets (GFP positive cells of transfused fresh platelets at 5 min after transfusion was set to 100%, n=4). […]

[3] = system: cold-stored PRP from C57BL/6-Tg(CAGEGFP)1 Osb/J; assay: Clearance of transfused cold-stored GFP platelets in PRP; assay type: in vivo, C57BL/6J mice; details: inclusion of EGTA, retro-orbital injection
Protocol: C57BL/6J mice were injected retro-orbitally with fresh or cold-stored PRP (2.5×10^8 per mouse) from C57BL/6-Tg(CAGEGFP)1 Osb/J. Blood was collected from the recipients and platelets were analyzed by flow cytometry, n=4). Rapid clearance of cold-stored platelets in PRP is less severe than washed platelets.

[4] = system: PRP from C57BL/6 mice; assay: Cold storage of mouse PRP: aggregation and platelet counts; assay type: cell-based; details: PRP with EGTA
From the text: This conclusion is drawn based on the experiments using washed platelets. Although a small portion of platelet products uses platelet additive solution (PAS), most platelet products used for transfusion are in plasma. Therefore, whether PRP has a similar phenotype as observed in washed platelets was examined.

[5] = system: washed platelets from C57BL/6J mice; assay: Thrombin-induced platelet aggregation; assay type: cell-based
Protocol: Platelets were then added with buffer or 1 mM CaCl2). Washed platelets suspended in Tyrode's solution with 1 mM CaCl2 were used as a control. Platelet aggregation was induced by addition of thrombin (0.025 U/ml).

[6] = system: washed platelets from C57BL/6J mice; assay: Platelet adhesion and spreading on fibrinogen; assay type: cell-based; details: EGTA 100 μM
Protocol: Platelets were then added with buffer or 1 mM CaCl2). Washed platelets suspended in Tyrode's solution with 1 mM CaCl2 were used as a control. Platelets were then added to polystyrene dishes coated with 50 μg/mL of fibrinogen and incubated at 37° C. for 60 minutes and labeled with Rhodamine-Phalloidin and photographed using a fluorescence microscope. […] This conclusion was further confirmed by a fibrinogen binding assay.

[7] = biological target: T1, αIIbβ3 (Mus musculus, UniProt O54890+Q9QUM0); assay: Thrombin-induced fibrinogen binding to platelets (integrin ligand binding function); assay type: cell-based, C57BL/6J mice; details: 100 μM EGTA
T1 construct: Washed platelets from C57BL/6J mice suspended in Tyrode's solution; endogenous in cells; host or cells: washed platelets from C57BL/6J mice
T1 sequence (Q9QUM0 32-1033): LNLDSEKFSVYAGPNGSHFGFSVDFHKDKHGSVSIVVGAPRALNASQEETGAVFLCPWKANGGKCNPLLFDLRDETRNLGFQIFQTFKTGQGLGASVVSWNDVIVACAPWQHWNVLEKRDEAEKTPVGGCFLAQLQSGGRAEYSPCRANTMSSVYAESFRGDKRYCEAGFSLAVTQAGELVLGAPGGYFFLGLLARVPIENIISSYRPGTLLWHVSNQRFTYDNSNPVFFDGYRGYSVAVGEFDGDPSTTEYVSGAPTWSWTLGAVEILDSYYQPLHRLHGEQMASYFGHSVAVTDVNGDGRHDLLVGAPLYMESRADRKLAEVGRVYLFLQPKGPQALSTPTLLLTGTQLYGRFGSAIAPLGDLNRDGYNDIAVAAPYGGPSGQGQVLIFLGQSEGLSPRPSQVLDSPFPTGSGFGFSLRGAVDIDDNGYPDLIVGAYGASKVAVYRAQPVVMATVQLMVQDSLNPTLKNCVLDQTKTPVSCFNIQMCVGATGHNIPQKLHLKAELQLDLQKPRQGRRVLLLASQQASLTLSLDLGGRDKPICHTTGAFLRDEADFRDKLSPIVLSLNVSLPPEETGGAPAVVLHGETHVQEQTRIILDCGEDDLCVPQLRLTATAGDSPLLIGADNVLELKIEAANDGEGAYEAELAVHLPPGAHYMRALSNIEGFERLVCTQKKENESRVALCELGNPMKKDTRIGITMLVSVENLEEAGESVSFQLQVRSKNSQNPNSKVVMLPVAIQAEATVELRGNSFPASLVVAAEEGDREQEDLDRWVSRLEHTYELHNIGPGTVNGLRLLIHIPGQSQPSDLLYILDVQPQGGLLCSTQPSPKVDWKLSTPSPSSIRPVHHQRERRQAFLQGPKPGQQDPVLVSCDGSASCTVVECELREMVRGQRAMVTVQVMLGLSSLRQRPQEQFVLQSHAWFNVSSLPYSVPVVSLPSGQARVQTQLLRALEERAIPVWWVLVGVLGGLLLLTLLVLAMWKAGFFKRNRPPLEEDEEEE
T1 sequence (O54890 26-787): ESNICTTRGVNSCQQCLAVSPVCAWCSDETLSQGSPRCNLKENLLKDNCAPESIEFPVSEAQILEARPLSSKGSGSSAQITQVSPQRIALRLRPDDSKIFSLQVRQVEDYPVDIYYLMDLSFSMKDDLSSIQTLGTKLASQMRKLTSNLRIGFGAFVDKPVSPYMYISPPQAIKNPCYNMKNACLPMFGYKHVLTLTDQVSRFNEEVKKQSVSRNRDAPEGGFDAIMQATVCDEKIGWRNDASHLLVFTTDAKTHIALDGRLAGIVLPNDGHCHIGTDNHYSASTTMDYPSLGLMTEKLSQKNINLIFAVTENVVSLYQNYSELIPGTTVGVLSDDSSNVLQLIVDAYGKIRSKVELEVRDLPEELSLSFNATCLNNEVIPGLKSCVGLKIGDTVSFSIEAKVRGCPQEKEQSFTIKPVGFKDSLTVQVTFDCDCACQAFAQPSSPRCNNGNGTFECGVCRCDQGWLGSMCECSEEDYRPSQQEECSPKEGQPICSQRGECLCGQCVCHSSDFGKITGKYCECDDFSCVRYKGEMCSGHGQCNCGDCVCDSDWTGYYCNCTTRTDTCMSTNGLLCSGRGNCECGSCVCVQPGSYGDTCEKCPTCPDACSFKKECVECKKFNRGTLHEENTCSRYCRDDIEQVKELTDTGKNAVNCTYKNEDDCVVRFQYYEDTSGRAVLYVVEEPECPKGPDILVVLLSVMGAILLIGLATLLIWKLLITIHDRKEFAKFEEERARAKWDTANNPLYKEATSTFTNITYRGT
Protocol: Platelets were then added with buffer or 1 mM CaCl2). Washed platelets suspended in Tyrode's solution with 1 mM CaCl2 were used as a control. Platelets were incubated with Oregon Green-labeled fibrinogen and thrombin (0.1 U/ml) at 22° C. for 30 min. Quantitative results were expressed as fibrinogen binding indices (geomean of fluorescence intensity of stimulated platelets/geomean of fluorescence intensity of unstimulated platelets; n=3).

[8] = system: PRP prepared from healthy donors; assay: Cold storage of human PRP: platelet counts; assay type: cell-based; details: human PRP (ACD anticoagulant), various time points
Protocol: Platelet counts were monitored at various time points. […] Fibrinogen binding to platelets increased after cold storage (FIG. 14B). […] The amount of serotonin secreted in the supernatant was then measured.

`O=C(O)CN(CCOCCOCCN(CC(=O)O)CC(=O)O)CC(=O)O` [EGTA, ethylene glycol-bis(β-aminoethyl ether)-N,N,N′,N′-tetraacetic acid] was tested, and the cold-induced platelet aggregation [1] was “completely inhibited cold-induced platelet aggregation”, the “reduction in platelet counts” value [1] was “completely inhibited” and the “platelets that stayed in circulation for more than 2 hours” value [2] was “About 75%”. The “rapid clearance of cold-stored platelets” value [2] was “significantly inhibited rapid clearance”, the “quick clearance of cold-stored platelets in PRP” value [3] was “significantly reduced quick clearance” and the “reduction in platelet counts by cold storage” value ([4]; 4° C. for various time) was “effectively inhibited reduction in platelet counts”. For the same compound, the “platelet aggregation in PRP” value ([4]; cold storage) was “inhibited platelet aggregation”, the “platelet aggregation induced by thrombin” value ([5]; EGTA 100 μM at RT, thrombin 0.025 U/ml) was “inhibited platelet aggregation” and the “reversibility of the inhibition of platelet aggregation” value ([5]; EGTA 100 μM, then 1 mM CaCl2) was “reversible”. The “platelet adhesion and spreading on fibrinogen” value ([6]; 50 μg/mL fibrinogen, 37° C. for 60 minutes) was “inhibited platelet adhesion and spreading on fibrinogen”, the “reversal of the inhibition of adhesion and spreading” value ([6]; then 1 mM CaCl2) was “completely reversed” and the “reversal of the inhibition of fibrinogen binding” value ([7]; then 1 mM CaCl2) was “reversed”. The “thrombin-induced fibrinogen binding to platelets” value ([7]; thrombin 0.1 U/ml, 22° C. for 30 min) was “completely inhibited” and the “decrease of platelet counts after storage at 4° C.” value [8] was “inhibited”.
